Reference: US20230061432A1, “NEW TECHNOLOGY TO CONJUGATE THE TACCALONOLIDE MICROTUBULE STABILIZERS WITH LINKERS/PAYLOADS” (priority 2019, published 2023)

Columns and labels:
HeLa cells = test: sulforhodamine B (SRB) antiproliferative assay; type: cell-based, human; conditions: 48 h; mean ± SEM; read-out: GI50, concentration that causes a 50% decrease in proliferation, HeLa
Source text: (§1) HCC1806 (CRL-2335) and HCC1937 (CRL-2336) human triple-negative breast cancer cells, HeLa (CCL-2) cervical cancer cells and SK-OV-3 (HTB-77) ovarian cancer cells were obtained from ATCC (Manassas, Va.) and validated by STR profiling (Genetica). SK-OV-3 cells stably overexpressing Pgp by adenoviral-mediated expression of MDR1 were obtained from Dr. Susan Kane and subcloned by limiting dilution to isolate the single-cell clones utilized in these studies as SK-OV-3-MDR-1-6/6 (Risinger, A. L. et al. (2008) Cancer Res. 68, 8881-8888). A single-cell clone from transfection of HeLa cells with βIII-tubulin, designated wild type βIII, was constructed and obtained from Dr. Richard Luduena (Risinger, A. L. et al. (2008) Cancer Res. 68, 8881-8888). HCC1806 and HCC1937 cells were cultured in RPMI 1640 media (Corning) with 10% FBS (Cellgro) and 50 μg/mL gentamicin (Gibco). HeLa, […] expressing HeLa, SK-OV-3 and SK-OV-3/MDR-1-6/6 cells were grown in BME media with Earle's salts (Gibco) with 10% FBS, 1× final 1% GlutaMax™ Supplement (Gibco), and […] gentamicin. The use of HeLa cells allows for the direct comparison of the in vitro potency as compared to other compounds of this class, which have been predominantly reported in this line and compound potencies are consistent among three additional cancer cell lines. HeLa cells were also used for ectopic expression of tubulin mutants due to the high degree of transfectability of this cell line. Cells were tested for mycoplasma contamination using the Mycoplasma Detection Kit-Quick Test (Cat: B39032, Lot: JW004).
(§2) The sulforhodamine B (SRB) assay was utilized to examine the antiproliferative and cytotoxic effects of the compounds (Skehan, P. et al. (1990) J. Natl. Cancer Inst. 82, 1107-1112; Vichai and Kirtikara (2006) Nat. Protoc. 1, 1112-1116). Approximately 2,000 cells per well (for SK-OV-3, HeLa and βIII-tubulin expressing HeLa) or 4,000 cells per well (for HCC1806 and HCC1937) were seeded in 96-well plates. For each biological replicate, cells were treated in triplicate with each concentration of compound or vehicle control for 48 h in a final volume of 200 μL. The plates were fixed with 10% trichloroacetic acid for protein precipitation of adherent cells and then washed with distilled water. 100 μL of SRB dye, which binds protein stoichiometrically, was added and then unbound dye removed with 1% acetic acid followed by the addition of 200 μL 10 mM Tris to solubilize the dye, which was quantified by absorbance at 560 nm. The percent growth of treated cells relative to the density at the time of drug addiction was calculated as compared to vehicle treated cells.

SK-OV-3 cells = test: sulforhodamine B (SRB) antiproliferative assay; type: cell-based, human; conditions: 48 h; mean ± SEM; read-out: GI50, concentration that causes a 50% decrease in proliferation, SK-OV-3
Source text: as §1, §2

[1] = target: T1, purified porcine brain tubulin (Sus scrofa, UniProt P02554); test: biochemical tubulin polymerization assay; conditions: tubulin 20 μM
T1 construct: purified porcine brain tubulin (Cytoskeleton); purchased Cytoskeleton; host or cells: porcine brain
T1 sequence (P02554 whole entry): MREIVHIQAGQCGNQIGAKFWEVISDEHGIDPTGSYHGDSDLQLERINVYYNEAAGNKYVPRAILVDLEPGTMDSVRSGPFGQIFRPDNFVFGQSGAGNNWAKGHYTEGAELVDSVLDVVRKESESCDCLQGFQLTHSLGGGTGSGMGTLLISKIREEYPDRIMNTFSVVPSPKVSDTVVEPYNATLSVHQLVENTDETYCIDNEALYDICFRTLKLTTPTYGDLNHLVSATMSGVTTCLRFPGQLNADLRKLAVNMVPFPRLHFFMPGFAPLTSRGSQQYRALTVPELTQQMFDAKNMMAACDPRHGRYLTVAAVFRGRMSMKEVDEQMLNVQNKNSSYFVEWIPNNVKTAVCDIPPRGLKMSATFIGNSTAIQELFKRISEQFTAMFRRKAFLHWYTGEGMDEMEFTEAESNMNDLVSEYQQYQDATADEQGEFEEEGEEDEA
T1 sequence (P02550 whole entry partner): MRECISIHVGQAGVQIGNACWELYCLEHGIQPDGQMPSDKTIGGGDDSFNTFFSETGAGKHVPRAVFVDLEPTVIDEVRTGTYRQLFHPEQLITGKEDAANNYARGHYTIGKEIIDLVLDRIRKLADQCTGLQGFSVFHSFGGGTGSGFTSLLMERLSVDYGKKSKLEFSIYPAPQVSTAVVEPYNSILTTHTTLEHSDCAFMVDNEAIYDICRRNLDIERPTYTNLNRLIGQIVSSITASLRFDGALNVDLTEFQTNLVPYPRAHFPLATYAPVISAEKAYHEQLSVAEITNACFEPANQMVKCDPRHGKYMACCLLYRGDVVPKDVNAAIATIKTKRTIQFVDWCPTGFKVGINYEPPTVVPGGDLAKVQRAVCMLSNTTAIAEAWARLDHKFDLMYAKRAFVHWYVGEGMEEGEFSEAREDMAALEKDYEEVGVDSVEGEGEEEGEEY
Protocol: Exemplary results of the […] tubulin polymerization assay are illustrated in FIG. 3, FIG. 4B, and FIG. 5B and were obtained as described in Risinger et al., Cancer Research, 2013.
Biochemical tubulin polymerization assays were performed using purified porcine brain tubulin (Cytoskeleton). In individual wells of a 96-well plate, 1 μL of each 100× drug stock was incubated with 20 μM porcine brain tubulin in GPEM glycerol buffer (1 mM GTP, 10% glycerol, 80 mM PIPES pH 6.9, 2 mM MgCl2 and 0.5 mM EGTA) in a final volume of 100 μL. Pure porcine tubulin was prepared on ice at 4° C. to inhibit tubulin polymerization until the assay was initiated, while the plate reader was pre-warmed to 37° C. Tubulin polymerization was measured every minute for an hour by light scattering at 340 nm in a Spectramax plate reader using SoftMax software (Molecular Devices). Light scattering was normalized to the initial measurement for each well. For the probe-tubulin binding assay, samples were prepared on ice in tubes instead of a 96 well plate, and moved to a 37° C. heat block to initiate binding and polymerization. The time zero (0′) sample consisted of tubulin polymerization buffer prior to addition of taccalonolide probe. […]

CC(=O)O[C@H]1[C@H]2[C@H]([C@@H]3[C@@H](O)[C@@H]4[C@H]([C@H](C)[C@@H]5O[C@@]56OC(=O)[C@@](C)(O)[C@]46C)[C@@]3(C)[C@H]1OC(C)=O)[C@@H](O)C(=O)[C@H]1C[C@@H]3O[C@@H]3[C@H](OC(C)=O)[C@]21C [compound 2, taccalonolide AJ, reference compound]
GI50 (HeLa cells): 8.5 nM | GI50 (SK-OV-3 cells): 6.2 nM | concentration range promoting polymerization of purified tubulin [1]: 5 to 20 µM
